Our source for the Kd, inhibition and IC50 values is ChEMBL document CHEMBL2412974, “Dimeric and trimeric triazole based molecules as a new class of Hsp90 molecular chaperone inhibitors” (Eur J Med Chem, 2013).

The target in assay [1] is T1, Heat shock protein HSP 90-beta (Homo sapiens, UniProt P08238). Kind of assay: Binding affinity to human Hsp90 by surface plasmon resonance analysis. (Surface plasmon resonance follows binding to a sensor surface in real time, without labels.)
In assay [2] the target is T1, Heat shock protein HSP 90-beta. Description: Inhibition of human Hsp90 chaperone activity assessed as citrate synthase thermal-induced aggregation at 0.3 uM by fluorimetric analysis.
Assay [3] shares this target. Description: Inhibition of human Hsp90 ATPase activity assessed as inhibition of ATP hydrolysis after 60 mins by fluorimetric analysis.

Activity calls are given as the source filed them. The rule behind the calls is not given here.

T1 sequence (P08238 whole entry): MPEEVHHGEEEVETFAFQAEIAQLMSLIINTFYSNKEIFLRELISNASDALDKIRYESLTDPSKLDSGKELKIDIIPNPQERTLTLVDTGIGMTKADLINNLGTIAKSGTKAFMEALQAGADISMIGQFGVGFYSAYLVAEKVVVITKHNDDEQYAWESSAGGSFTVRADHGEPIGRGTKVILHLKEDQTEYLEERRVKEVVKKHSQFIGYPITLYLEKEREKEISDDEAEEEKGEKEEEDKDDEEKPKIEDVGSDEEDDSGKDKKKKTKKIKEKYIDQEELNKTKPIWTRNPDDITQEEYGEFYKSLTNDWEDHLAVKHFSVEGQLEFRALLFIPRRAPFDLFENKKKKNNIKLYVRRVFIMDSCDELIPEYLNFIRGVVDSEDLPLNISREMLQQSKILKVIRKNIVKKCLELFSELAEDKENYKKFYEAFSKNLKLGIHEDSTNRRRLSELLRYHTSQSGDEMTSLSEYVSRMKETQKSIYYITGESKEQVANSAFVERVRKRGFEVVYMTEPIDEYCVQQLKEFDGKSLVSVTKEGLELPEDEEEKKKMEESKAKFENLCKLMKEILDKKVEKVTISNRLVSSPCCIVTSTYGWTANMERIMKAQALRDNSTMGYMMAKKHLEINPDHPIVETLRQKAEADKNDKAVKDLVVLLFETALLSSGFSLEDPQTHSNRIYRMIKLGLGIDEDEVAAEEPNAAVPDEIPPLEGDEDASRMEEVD

As usually defined, the Kd is a measure of binding affinity in units of concentration. Consider `c1ccc(-c2ccc(Cn3cc(COCc4cn(Cc5ccc(-c6ccccc6)cc5)nn4)nn3)cc2)cc1`, for which the Kd in assay [1] (read-out: Kd) amounted to 237 nM. As for `c1ccc(-c2ccc(Cn3cc(-c4ccc(-c5cn(Cc6ccc(-c7ccccc7)cc6)nn5)cc4)nn3)cc2)cc1`, in assay [1], the Kd entry was “Not Active”. On the same count and under the same terms, the same measure for `O=C1c2ccccc2C(=O)c2cc(Cn3cc(CCCCc4cn(Cc5ccc6c(c5)C(=O)c5ccccc5C6=O)nn4)nn3)ccc21`: “Not Active”. For `O=C1c2ccccc2C(=O)c2cc(Cn3cc(CN(Cc4cn(Cc5ccc6c(c5)C(=O)c5ccccc5C6=O)nn4)Cc4cn(Cc5ccc6c(c5)C(=O)c5ccccc5C6=O)nn4)nn3)ccc21`, the dissociation constant (Kd) in assay [1] (read-out: Kd) came out at 107 nM.

For `c1ccc2cc(Cn3cc(COCc4cn(Cc5ccc6ccccc6c5)nn4)nn3)ccc2c1`, in assay [1], the Kd result was “Not Active”. Same read-out and setting: the same measure for `c1ccc(-c2ccc(Cn3cc(CCCCc4cn(Cc5ccc(-c6ccccc6)cc5)nn4)nn3)cc2)cc1`: “Not Active”; for `c1ccc2cc(Cn3cc(-c4ccc(-c5cn(Cc6ccc7ccccc7c6)nn5)cc4)nn3)ccc2c1`: “Not Active”; for `O=C(c1ccccc1)c1ccc(Cn2cc(-c3ccc(-c4cn(Cc5ccc(C(=O)c6ccccc6)cc5)nn4)cc3)nn2)cc1`: “Not Active”. For orientation: IC50 means the midpoint of a concentration-inhibition curve. Consider `O=C(c1ccccc1)c1ccc(Cn2cc(COCc3cn(Cc4ccc(C(=O)c5ccccc5)cc4)nn3)nn2)cc1`, for which the inhibition entry in assay [2] was “Active”. Besides, in assay [3], the IC50 came out at 7000 nM and the inhibition entry is “Dose-dependent effect”. Also, the Kd in assay [1] (read-out: Kd) was 3.6 nM. In the case of `O=C1c2ccccc2C(=O)N1CCCn1cc(-c2ccc(-c3cn(CCCN4C(=O)c5ccccc5C4=O)nn3)cc2)nn1`, the Kd entry in assay [1] is “Not Active”.

With `O=C1c2ccccc2C(=O)c2cc(Cn3cc(-c4ccc(-c5cn(Cc6ccc7c(c6)C(=O)c6ccccc6C7=O)nn5)cc4)nn3)ccc21`, the Kd result in assay [1] was “Not Active”.

With `O=C(c1ccccc1)c1ccc(Cn2cc(CCCCc3cn(Cc4ccc(C(=O)c5ccccc5)cc4)nn3)nn2)cc1`, the Kd entry in assay [1] is “Not Active”. In the case of `O=C1c2ccccc2C(=O)N1CCCn1cc(CCCCc2cn(CCCN3C(=O)c4ccccc4C3=O)nn2)nn1`, the Kd entry in assay [1] is reported as “Not Active”. Regarding `c1ccc2c(Cn3cc(CN(Cc4cn(Cc5cccc6ccccc56)nn4)Cc4cn(Cc5cccc6ccccc56)nn4)nn3)cccc2c1`, in assay [1] (read-out: Kd), the Kd worked out at 201 nM. As to `c1ccc2cc(Cn3cc(CN(Cc4cn(Cc5ccc6ccccc6c5)nn4)Cc4cn(Cc5ccc6ccccc6c5)nn4)nn3)ccc2c1`, the inhibition result in assay [2] is “Active”. Besides, in assay [3], the half-maximal inhibitory concentration (IC50) turned out to be 16000 nM and the inhibition result is “Dose-dependent effect”. Besides, the dissociation constant Kd in assay [1] (read-out: Kd) came out at 55 nM. Take `c1ccc2c(Cn3cc(CCCCc4cn(Cc5cccc6ccccc56)nn4)nn3)cccc2c1`: the Kd in assay [1] (read-out: Kd) is 191 nM. Regarding `O=C1c2ccccc2C(=O)c2cc(Cn3cc(COCc4cn(Cc5ccc6c(c5)C(=O)c5ccccc5C6=O)nn4)nn3)ccc21`, the inhibition entry in assay [2] is “Active”. Further, in assay [3], the IC50 was 7000 nM and the inhibition result was “Dose-dependent effect”. Also, the Kd in assay [1] (read-out: Kd) worked out at 2.8 nM.

For `c1ccc2c(Cn3cc(COCc4cn(Cc5cccc6ccccc56)nn4)nn3)cccc2c1`, the Kd in assay [1] (read-out: Kd) was 10.3 nM.

Turning to `O=C1c2ccccc2C(=O)N1CCCn1cc(CN(Cc2cn(CCCN3C(=O)c4ccccc4C3=O)nn2)Cc2cn(CCCN3C(=O)c4ccccc4C3=O)nn2)nn1`, the Kd in assay [1] (read-out: Kd) was 89 nM. The same measure, in the same setting: the result for `O=C(c1ccccc1)c1ccc(Cn2cc(CN(Cc3cn(Cc4ccc(C(=O)c5ccccc5)cc4)nn3)Cc3cn(Cc4ccc(C(=O)c5ccccc5)cc4)nn3)nn2)cc1` reads 151 nM. For `c1ccc2cc(Cn3cc(CCCCc4cn(Cc5ccc6ccccc6c5)nn4)nn3)ccc2c1`, the inhibition entry in assay [2] is “Active”. Further, in assay [3], the IC50 is 52000 nM and the inhibition result was “Dose-dependent effect”. Besides, in assay [1] (read-out: Kd), the dissociation constant Kd was found to be 84 nM.

Turning to `O=C1c2ccccc2C(=O)N1CCCn1cc(COCc2cn(CCCN3C(=O)c4ccccc4C3=O)nn2)nn1`, the inhibition result in assay [2] is “Active”. For the same molecule, in assay [3], the IC50 was 7000 nM and the inhibition result was “Dose-dependent effect”. For the same molecule, the Kd in assay [1] (read-out: Kd) worked out at 3.5 nM.

With `c1ccc(-c2ccc(Cn3cc(CN(Cc4cn(Cc5ccc(-c6ccccc6)cc5)nn4)Cc4cn(Cc5ccc(-c6ccccc6)cc5)nn4)nn3)cc2)cc1`, the Kd in assay [1] (read-out: Kd) is 72 nM.

`c1ccc2c(Cn3cc(-c4ccc(-c5cn(Cc6cccc7ccccc67)nn5)cc4)nn3)cccc2c1`: the Kd entry in assay [1] is recorded as “Not Active”.
